According to ChEMBL document CHEMBL4420076, “Amylin and calcitonin receptor agonist” (2017):
pEC50, pIC50: −log10 of the molar value. Peptide text beside a SMILES is read from it. * marks the point of attachment. C18 diacid = O=C(O)CCCCCCCCCCCCCCCCC(=O)*; C14 diacid = O=C(O)CCCCCCCCCCCCC(=O)*

Columns and labels:
[1] = test system: Rattus norvegicus; test: Reduction in food intake in Sprague-Dawley rat at 3 nmol/kg measured 0 to 24 hrs post dose relative to control; format: functional; set-up: scale not given: the % may be the effect or the level left
[2] = Solubility in 100 mM glycylglycine buffer at pH 5.0 incubated for 18 hrs by UPLC analysis; format: physicochemical
[3] = Solubility in 100 mM bistrispropane buffer at pH 7.5 incubated for 18 hrs by UPLC analysis; format: physicochemical
[4] = test system: Rattus norvegicus; test: Reduction in food intake in Sprague-Dawley rat at 3 nmol/kg measured 24 to 48 hrs post dose relative to control; format: functional; set-up: scale not given: the % may be the effect or the level left
[5] = Solubility in 100 mM bistrispropane buffer at pH 6.5 incubated for 18 hrs by UPLC analysis; format: physicochemical
[6] = target: T1, Calcitonin receptor (Homo sapiens, UniProt P30988); test: Agonist activity at human calcitonin receptor expressed in BHK570 cells assessed as increase in intracellular cAMP concentration incubated for 3 hrs in absence of albumin by CRE luciferase reporter gene assay; format: functional, cell-based
T1 sequence (P30988 whole entry): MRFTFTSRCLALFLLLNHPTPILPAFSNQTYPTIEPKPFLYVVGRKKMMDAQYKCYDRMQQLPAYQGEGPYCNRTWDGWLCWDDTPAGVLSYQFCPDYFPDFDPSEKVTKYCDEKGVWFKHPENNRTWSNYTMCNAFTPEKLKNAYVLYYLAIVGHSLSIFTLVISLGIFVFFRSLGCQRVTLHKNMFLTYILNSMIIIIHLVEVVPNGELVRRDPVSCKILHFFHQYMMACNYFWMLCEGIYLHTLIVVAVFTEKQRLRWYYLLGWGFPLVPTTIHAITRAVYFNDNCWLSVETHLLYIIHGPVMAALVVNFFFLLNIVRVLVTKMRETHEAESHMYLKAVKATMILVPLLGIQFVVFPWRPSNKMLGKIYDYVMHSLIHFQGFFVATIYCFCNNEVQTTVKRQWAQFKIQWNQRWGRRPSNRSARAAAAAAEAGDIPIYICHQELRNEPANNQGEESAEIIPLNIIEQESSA

[7] = Solubility in 100 mM bistrispropane buffer at pH 7.0 incubated for 18 hrs by UPLC analysis; format: physicochemical
[8] = Solubility in 100 mM glycylglycine buffer at pH 3.0 incubated for 18 hrs by UPLC analysis; format: physicochemical
[9] = target: T2, Amylin receptor AMY3; CALCR/RAMP3 (Homo sapiens, UniProt O60896+P30988); test: Displacement of [125I]-labeled rat amylin from human amylin receptor expressed in BHK tkts13 whole cells co-expressing RAMP3 incubated for 60 mins by scintillation proximity assay; format: cell-based
T2 sequence (P30988 whole entry): T1 sequence (P30988 whole entry)
T2 sequence (O60896 whole entry): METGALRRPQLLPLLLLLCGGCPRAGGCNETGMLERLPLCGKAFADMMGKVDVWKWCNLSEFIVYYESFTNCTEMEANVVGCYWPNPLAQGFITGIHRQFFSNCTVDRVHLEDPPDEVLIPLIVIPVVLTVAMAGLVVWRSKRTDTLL

[10] = target: T2, Amylin receptor AMY3; CALCR/RAMP3; test: Agonist activity at human amylin receptor expressed in BHK570 cells co-expressing RAMP3 assessed as increase in intracellular cAMP concentration incubated for 3 hrs in absence of albumin by CRE luciferase reporter gene assay; format: functional, cell-based
[11] = Solubility in 100 mM glycylglycine buffer at pH 4.0 incubated for 18 hrs by UPLC analysis; format: physicochemical
[12] = Solubility in 100 mM bistrispropane buffer at pH 8.0 incubated for 18 hrs by UPLC analysis; format: physicochemical
[13] = Solubility in 100 mM bistrispropane buffer at pH 6.0 incubated for 18 hrs by UPLC analysis; format: physicochemical

With `CC(C)C[C@H](NC(=O)[C@H](CCC(=O)O)NC(=O)[C@H](Cc1cnc[nH]1)NC(=O)[C@H](CC(C)C)NC(=O)[C@H](CCC(=O)O)NC(=O)[C@H](C)NC(=O)[C@H](CO)NC(=O)[C@H](CC(C)C)NC(=O)[C@H](CCCNC(=N)N)NC(=O)CNC(=O)[C@H](CC(C)C)NC(=O)[C@@H](NC(=O)[C@H](C)NC(=O)[C@@H](NC(=O)[C@H](CO)NC(=O)[C@H](CC(C)C)NC(=O)[C@H](CCC(=O)O)NC(=O)[C@H](CO)NC(=O)[C@H](C)NC(=O)[C@H](CCC(=O)O)NC(=O)CCCCCCCCCCCCCCCCC(=O)O)[C@@H](C)O)C(C)C)C(=O)N[C@@H](C)C(=O)N[C@H](C(=O)N[C@@H](CC(C)C)C(=O)N1CCC[C@H]1C(=O)N1CCC[C@H]1C(=O)N[C@H](C(=O)N[C@@H](CCC(=O)O)C(=O)N[C@H](C(=O)NCC(=O)N1CCC[C@H]1C(=O)N[C@@H](CCC(=O)O)C(=O)N[C@@H](CO)C(=O)N1CCC[C@H]1C(N)=O)[C@@H](C)O)[C@@H](C)O)[C@@H](C)O` ({C18 diacid}-EASELSTAVLGRLSAELHELATLPPTETGPESP-NH2) the Activity [1] was 62%, the solubility at 18 h [2] was ≥ 200 µM and the solubility at 18 h [3] was ≥ 200 µM. For the same compound, the Activity [4] was 12%, the solubility at 18 h [5] was ≥ 200 µM and the pEC50 [6] was 11.22. The solubility at 18 h [7] was ≥ 200 µM, the solubility at 18 h [8] was ≥ 200 µM and the pIC50 [9] was 9.42. The pEC50 [10] was 10.85, the solubility at 18 h [11] was ≥ 200 µM and the solubility at 18 h [12] was ≥ 200 µM. For the same compound, the solubility at 18 h [13] was ≥ 200 µM.

With `CC(C)C[C@H](NC(=O)[C@H](C)NC(=O)[C@H](C)NC(=O)[C@@H](NC(=O)[C@H](CO)NC(=O)[C@H](CC(C)C)NC(=O)[C@H](CCC(=O)O)NC(=O)[C@H](CO)NC(=O)[C@H](C)NC(=O)[C@H](CCC(=O)O)NC(=O)CCCCCCCCCCCCC(=O)O)[C@@H](C)O)C(=O)NCC(=O)N[C@@H](CCCNC(=N)N)C(=O)N[C@@H](CC(C)C)C(=O)N[C@@H](CO)C(=O)N[C@@H](C)C(=O)N[C@@H](CCC(=O)O)C(=O)N[C@@H](CC(C)C)C(=O)N[C@@H](Cc1cnc[nH]1)C(=O)N[C@@H](CCC(=O)O)C(=O)N[C@@H](CC(C)C)C(=O)N[C@@H](C)C(=O)N[C@H](C(=O)N[C@@H](CC(C)C)C(=O)N1CCC[C@H]1C(=O)N[C@@H](CCCNC(=N)N)C(=O)N[C@H](C(=O)N[C@@H](CCC(=O)O)C(=O)N[C@H](C(=O)NCC(=O)N1CCC[C@H]1C(=O)N[C@@H](CCC(=O)O)C(=O)N[C@@H](CO)C(=O)N1CCC[C@H]1C(N)=O)[C@@H](C)O)[C@@H](C)O)[C@@H](C)O` ({C14 diacid}-EASELSTAALGRLSAELHELATLPRTETGPESP-NH2) the Activity [1] was 13.5%, the solubility at 18 h [2] was ≥ 200 µM and the solubility at 18 h [3] was ≥ 200 µM. The Activity [4] was -4%, the solubility at 18 h [5] was ≥ 200 µM and the pEC50 [6] was 11.70. The solubility at 18 h [7] was ≥ 200 µM, the solubility at 18 h [8] was ≥ 200 µM and the pIC50 [9] was 8.92. The pEC50 [10] was 11.22, the solubility at 18 h [11] was ≥ 200 µM and the solubility at 18 h [12] was ≥ 200 µM. For the same compound, the solubility at 18 h [13] was ≥ 200 µM.

For `CC(C)C[C@H](NC(=O)[C@H](C)NC(=O)[C@H](C)NC(=O)[C@@H](NC(=O)[C@H](CO)NC(=O)[C@H](CC(C)C)NC(=O)[C@H](CCC(=O)O)NC(=O)[C@H](CO)NC(=O)[C@H](C)NC(=O)[C@H](CCC(=O)O)NC(=O)CCCCCCCCCCCCCCCCC(=O)O)[C@@H](C)O)C(=O)NCC(=O)N[C@@H](CCCNC(=N)N)C(=O)N[C@@H](CC(C)C)C(=O)N[C@@H](CO)C(=O)N[C@@H](C)C(=O)N[C@@H](CCC(=O)O)C(=O)N[C@@H](CC(C)C)C(=O)N[C@@H](C)C(=O)N[C@@H](CCC(=O)O)C(=O)N[C@@H](CC(C)C)C(=O)N[C@@H](C)C(=O)N[C@H](C(=O)N[C@@H](CC(C)C)C(=O)N1CCC[C@H]1C(=O)N[C@@H](CCCNC(=N)N)C(=O)N[C@H](C(=O)N[C@@H](CCC(=O)O)C(=O)N[C@H](C(=O)NCC(=O)N1CCC[C@H]1C(=O)N[C@@H](CCC(=O)O)C(=O)N[C@@H](CO)C(=O)N1CCC[C@H]1C(N)=O)[C@@H](C)O)[C@@H](C)O)[C@@H](C)O` ({C18 diacid}-EASELSTAALGRLSAELAELATLPRTETGPESP-NH2), the Activity [1] was 70%, the solubility at 18 h [2] was ≥ 200 µM and the solubility at 18 h [3] was ≥ 200 µM. The Activity [4] was 18%, the solubility at 18 h [5] was ≥ 200 µM and the pEC50 [6] was 11.52. The solubility at 18 h [7] was ≥ 200 µM, the solubility at 18 h [8] was ≥ 200 µM and the pIC50 [9] was 9.48. For the same compound, the pEC50 [10] was 11.40, the solubility at 18 h [11] was ≥ 200 µM and the solubility at 18 h [12] was ≥ 200 µM. The solubility at 18 h [13] was ≥ 200 µM.

For `CC(C)C[C@H](NC(=O)[C@H](CCC(=O)O)NC(=O)[C@H](Cc1cnc[nH]1)NC(=O)[C@H](CC(C)C)NC(=O)[C@H](CCC(=O)O)NC(=O)[C@H](C)NC(=O)[C@H](CO)NC(=O)[C@H](CC(C)C)NC(=O)[C@H](CCCNC(=N)N)NC(=O)CNC(=O)[C@H](CC(C)C)NC(=O)[C@@H](NC(=O)[C@H](C)NC(=O)[C@@H](NC(=O)[C@H](CO)NC(=O)[C@H](CC(C)C)NC(=O)[C@H](CCC(=O)O)NC(=O)[C@H](CO)NC(=O)[C@H](C)NC(=O)[C@H](CCC(=O)O)NC(=O)CCCCCCCCCCCCCCCCC(=O)O)[C@@H](C)O)C(C)C)C(=O)N[C@@H](C)C(=O)N[C@H](C(=O)N[C@@H](CC(C)C)C(=O)N1CCC[C@H]1C(=O)N[C@@H](CCCNC(=N)N)C(=O)N[C@H](C(=O)N[C@@H](CCC(=O)O)C(=O)N[C@H](C(=O)NCC(=O)N1CCC[C@H]1C(=O)N[C@@H](CCC(=O)O)C(=O)N[C@@H](CO)C(=O)N1CCC[C@H]1C(N)=O)[C@@H](C)O)[C@@H](C)O)[C@@H](C)O` ({C18 diacid}-EASELSTAVLGRLSAELHELATLPRTETGPESP-NH2), the Activity [1] was 58.5%, the solubility at 18 h [2] was ≥ 200 µM and the solubility at 18 h [3] was ≥ 200 µM. For the same compound, the Activity [4] was 39%, the solubility at 18 h [5] was ≥ 200 µM and the pEC50 [6] was 11.05. For the same compound, the solubility at 18 h [7] was ≥ 200 µM, the solubility at 18 h [8] was ≥ 200 µM and the pIC50 [9] was 9.10. For the same compound, the pEC50 [10] was 10.92, the solubility at 18 h [11] was ≥ 200 µM and the solubility at 18 h [12] was ≥ 200 µM. For the same compound, the solubility at 18 h [13] was ≥ 200 µM.

With `CC(C)C[C@H](NC(=O)[C@H](CCC(=O)O)NC(=O)[C@H](Cc1cnc[nH]1)NC(=O)[C@H](CC(C)C)NC(=O)[C@H](CCC(=O)O)NC(=O)[C@H](C)NC(=O)[C@H](CO)NC(=O)[C@H](CC(C)C)NC(=O)[C@H](CCCNC(=N)N)NC(=O)CNC(=O)[C@H](CC(C)C)NC(=O)[C@@H](NC(=O)[C@H](C)NC(=O)[C@@H](NC(=O)[C@H](CO)NC(=O)[C@H](CC(C)C)NC(=O)[C@H](CCC(=O)O)NC(=O)[C@H](CO)NC(=O)[C@@H]1CCCN1C(=O)[C@H](CCC(=O)O)NC(=O)CCCCCCCCCCCCCCCCC(=O)O)[C@@H](C)O)C(C)C)C(=O)N[C@@H](C)C(=O)N[C@H](C(=O)N[C@@H](CC(C)C)C(=O)N1CCC[C@H]1C(=O)N[C@@H](CCCNC(=N)N)C(=O)N[C@H](C(=O)N[C@@H](CCC(=O)O)C(=O)N[C@H](C(=O)NCC(=O)N1CCC[C@H]1C(=O)N[C@@H](CCC(=O)O)C(=O)N[C@@H](CO)C(=O)N1CCC[C@H]1C(N)=O)[C@@H](C)O)[C@@H](C)O)[C@@H](C)O` ({C18 diacid}-EPSELSTAVLGRLSAELHELATLPRTETGPESP-NH2) the Activity [1] was 84%, the solubility at 18 h [2] was ≥ 200 µM and the solubility at 18 h [3] was ≥ 200 µM. For the same compound, the Activity [4] was 77%, the solubility at 18 h [5] was ≥ 200 µM and the pEC50 [6] was 11.15. For the same compound, the solubility at 18 h [7] was ≥ 200 µM, the solubility at 18 h [8] was ≥ 200 µM and the pIC50 [9] was 9.43. For the same compound, the pEC50 [10] was 11.10, the solubility at 18 h [11] was ≥ 200 µM and the solubility at 18 h [12] was ≥ 200 µM. For the same compound, the solubility at 18 h [13] was ≥ 200 µM.
